PubChem BioAssay AID588787 (The Scripps Research Institute Molecular Screening Center, 2011)
Active and inactive are the calls of the source.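 Rule for the calls: active = pPAFAH enzyme ratio at or below 0.5 while fewer than two other serine hydrolases drop that low; inactive = the rest.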

Columns and labels:
Test in all cases: off-target hydrolase inhibition by ABPP-MudPIT – biochemical, LC-MS/MS, mouse brain soluble proteome, selectivity assay for pPAFAH inhibitor project, late-stage follow-up (AID 588787)
Pafah1b3 = settings: ABPP-MudPIT FP-biotin spectral counts, at 1 µM, stronger effect = lower value
[1] = biological target: Prolyl endopeptidase (Mus musculus) (UniProt Q9QUR6); settings: ABPP-MudPIT FP-biotin spectral counts, Prep, at 1 µM, stronger effect = lower value
Chain of Prolyl endopeptidase (Mus musculus) (Q9QUR6 whole entry, looked up): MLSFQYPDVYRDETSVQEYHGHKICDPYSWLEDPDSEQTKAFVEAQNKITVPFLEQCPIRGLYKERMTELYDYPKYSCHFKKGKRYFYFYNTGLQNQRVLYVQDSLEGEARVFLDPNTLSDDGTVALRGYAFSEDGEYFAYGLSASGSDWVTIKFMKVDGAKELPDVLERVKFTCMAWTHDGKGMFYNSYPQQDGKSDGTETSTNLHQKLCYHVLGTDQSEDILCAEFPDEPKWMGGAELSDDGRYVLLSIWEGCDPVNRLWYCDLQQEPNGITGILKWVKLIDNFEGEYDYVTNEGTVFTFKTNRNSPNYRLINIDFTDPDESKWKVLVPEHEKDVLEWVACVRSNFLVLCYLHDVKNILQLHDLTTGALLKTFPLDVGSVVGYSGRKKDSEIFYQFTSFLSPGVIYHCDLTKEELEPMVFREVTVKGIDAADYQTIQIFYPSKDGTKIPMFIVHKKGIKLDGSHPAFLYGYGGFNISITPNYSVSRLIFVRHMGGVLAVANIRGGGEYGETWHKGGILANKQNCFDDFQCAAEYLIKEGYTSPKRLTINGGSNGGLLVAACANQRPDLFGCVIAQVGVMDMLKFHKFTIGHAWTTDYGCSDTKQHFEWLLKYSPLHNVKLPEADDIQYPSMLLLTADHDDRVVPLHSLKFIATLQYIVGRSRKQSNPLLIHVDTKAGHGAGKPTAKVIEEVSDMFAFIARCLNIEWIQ

Pafah1b2 = settings: ABPP-MudPIT FP-biotin spectral counts, at 1 µM, stronger effect = lower value
[2] = biological target: Acyl-protein thioesterase 1 (Mus musculus) (UniProt P97823); settings: ABPP-MudPIT FP-biotin spectral counts, Lypla1, at 1 µM, stronger effect = lower value
Chain of Acyl-protein thioesterase 1 (Mus musculus) (P97823 whole entry, looked up): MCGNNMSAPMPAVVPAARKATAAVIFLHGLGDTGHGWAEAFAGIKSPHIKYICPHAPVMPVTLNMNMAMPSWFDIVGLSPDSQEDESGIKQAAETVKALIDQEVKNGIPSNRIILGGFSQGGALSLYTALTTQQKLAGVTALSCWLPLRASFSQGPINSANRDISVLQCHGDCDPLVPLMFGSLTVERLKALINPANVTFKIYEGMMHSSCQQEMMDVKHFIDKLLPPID

Abhd11 = settings: ABPP-MudPIT FP-biotin spectral counts, at 1 µM, stronger effect = lower value
Rbbp9 = settings: ABPP-MudPIT FP-biotin spectral counts, at 1 µM, stronger effect = lower value
Apeh = settings: ABPP-MudPIT FP-biotin spectral counts, at 1 µM, stronger effect = lower value
Abhd4 = Abhd4 (UniProt Q8VD66); settings: ABPP-MudPIT FP-biotin spectral counts, at 1 µM, stronger effect = lower value
Chain of Abhd4 (Q8VD66 whole entry, looked up): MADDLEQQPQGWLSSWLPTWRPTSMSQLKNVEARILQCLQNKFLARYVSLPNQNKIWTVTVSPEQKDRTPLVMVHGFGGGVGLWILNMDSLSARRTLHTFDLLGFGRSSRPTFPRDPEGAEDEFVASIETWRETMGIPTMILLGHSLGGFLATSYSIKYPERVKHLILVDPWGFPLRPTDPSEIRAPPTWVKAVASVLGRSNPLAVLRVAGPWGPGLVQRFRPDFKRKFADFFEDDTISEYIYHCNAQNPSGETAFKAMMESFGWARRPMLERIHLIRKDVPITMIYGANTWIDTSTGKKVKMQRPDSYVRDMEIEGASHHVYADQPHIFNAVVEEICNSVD

Prepl = settings: ABPP-MudPIT FP-biotin spectral counts, at 1 µM, stronger effect = lower value
Magl = settings: ABPP-MudPIT FP-biotin spectral counts, at 1 µM, stronger effect = lower value
Acot7 = settings: ABPP-MudPIT FP-biotin spectral counts, at 1 µM, stronger effect = lower value
Dpp8 = settings: ABPP-MudPIT FP-biotin spectral counts, at 1 µM, stronger effect = lower value
Fasn = settings: ABPP-MudPIT FP-biotin spectral counts, at 1 µM, stronger effect = lower value
Tpp2 = settings: ABPP-MudPIT FP-biotin spectral counts, at 1 µM, stronger effect = lower value
Pla2g15 = settings: ABPP-MudPIT FP-biotin spectral counts, at 1 µM, stronger effect = lower value
Acot2 = settings: ABPP-MudPIT FP-biotin spectral counts, at 1 µM, stronger effect = lower value
Lyplal1 = settings: ABPP-MudPIT FP-biotin spectral counts, at 1 µM, stronger effect = lower value
Dpp9 = settings: ABPP-MudPIT FP-biotin spectral counts, at 1 µM, stronger effect = lower value
Es1 = settings: ABPP-MudPIT FP-biotin spectral counts, at 1 µM, stronger effect = lower value
Esd = settings: ABPP-MudPIT FP-biotin spectral counts, at 1 µM, stronger effect = lower value
Pme1 = settings: ABPP-MudPIT FP-biotin spectral counts, at 1 µM, stronger effect = lower value
[3] = biological target: Palmitoyl-protein thioesterase ABHD10, mitochondrial (Mus musculus) (UniProt Q6PE15); settings: ABPP-MudPIT FP-biotin spectral counts, at 1 µM, stronger effect = lower value
Chain of Palmitoyl-protein thioesterase ABHD10, mitochondrial (Mus musculus) (Q6PE15 whole entry, looked up): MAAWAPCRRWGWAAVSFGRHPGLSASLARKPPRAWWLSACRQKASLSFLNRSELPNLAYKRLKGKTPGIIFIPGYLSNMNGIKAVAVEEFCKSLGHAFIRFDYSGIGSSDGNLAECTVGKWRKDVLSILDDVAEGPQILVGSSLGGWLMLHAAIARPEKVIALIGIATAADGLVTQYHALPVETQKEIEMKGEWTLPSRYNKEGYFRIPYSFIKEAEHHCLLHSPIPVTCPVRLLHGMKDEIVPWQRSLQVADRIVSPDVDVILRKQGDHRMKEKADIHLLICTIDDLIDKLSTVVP

Lipe = settings: ABPP-MudPIT FP-biotin spectral counts, at 1 µM, stronger effect = lower value
[4] = biological target: Platelet-activating factor acetylhydrolase (Mus musculus) (UniProt Q60963); settings: ABPP-MudPIT FP-biotin spectral counts, Pla2g7 (pPAFAH), at 1 µM, stronger effect = lower value
Chain of Platelet-activating factor acetylhydrolase (Mus musculus) (Q60963 whole entry, looked up): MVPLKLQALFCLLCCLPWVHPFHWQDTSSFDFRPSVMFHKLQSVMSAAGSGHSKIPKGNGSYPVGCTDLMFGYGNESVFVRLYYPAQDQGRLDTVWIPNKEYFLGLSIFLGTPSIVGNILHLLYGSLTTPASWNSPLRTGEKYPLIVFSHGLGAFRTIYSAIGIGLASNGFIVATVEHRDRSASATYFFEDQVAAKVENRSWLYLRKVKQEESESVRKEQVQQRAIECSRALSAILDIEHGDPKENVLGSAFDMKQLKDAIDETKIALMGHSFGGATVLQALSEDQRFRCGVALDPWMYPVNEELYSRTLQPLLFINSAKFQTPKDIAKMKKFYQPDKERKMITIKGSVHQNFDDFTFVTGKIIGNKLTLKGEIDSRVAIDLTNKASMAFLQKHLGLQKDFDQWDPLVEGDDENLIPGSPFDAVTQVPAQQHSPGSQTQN

Acot1 = settings: ABPP-MudPIT FP-biotin spectral counts, at 1 µM, stronger effect = lower value
Lypla2 = settings: ABPP-MudPIT FP-biotin spectral counts, at 1 µM, stronger effect = lower value

- ratio of spectral counts to DMSO (Pafah1b3): 1.2 (inactive)
- ratio of spectral counts to DMSO [1]: 1.2 (inactive)
- ratio of spectral counts to DMSO (Pafah1b2): 1.4 (inactive)
- ratio of spectral counts to DMSO [2]: 1.1 (inactive)
- ratio of spectral counts to DMSO (Abhd11): 1.2 (inactive)
- ratio of spectral counts to DMSO (Rbbp9): 1.1 (inactive)
- ratio of spectral counts to DMSO (Apeh): 1.1 (inactive)
- ratio of spectral counts to DMSO (Abhd4): 0.8 (inactive)
- ratio of spectral counts to DMSO (Prepl): 1.1 (inactive)
- ratio of spectral counts to DMSO (Magl): 0.8 (inactive)
- ratio of spectral counts to DMSO (Acot7): 0.8 (inactive)
- ratio of spectral counts to DMSO (Dpp8): 1.1 (inactive)
- ratio of spectral counts to DMSO (Fasn): 1.1 (inactive)
- ratio of spectral counts to DMSO (Tpp2): 0.8 (inactive)
- ratio of spectral counts to DMSO (Pla2g15): 1.1 (inactive)
- ratio of spectral counts to DMSO (Acot2): 1.1 (inactive)
- ratio of spectral counts to DMSO (Lyplal1): 1.1 (inactive)
- ratio of spectral counts to DMSO (Dpp9): 1.3 (inactive)
- ratio of spectral counts to DMSO (Es1): 0
- ratio of spectral counts to DMSO (Esd): 1.1 (inactive)
- ratio of spectral counts to DMSO (Pme1): 1.1 (inactive)
- ratio of spectral counts to DMSO [3]: 1.1 (inactive)
- ratio of spectral counts to DMSO (Lipe): 0.9 (inactive)
- ratio of spectral counts to DMSO [4]: 0
- ratio of spectral counts to DMSO (Acot1): 1.1 (inactive)
- ratio of spectral counts to DMSO (Lypla2): 1.3 (inactive)
Structure (SMILES): Cc1cc(N2CCN(C(=O)Oc3ccc(-c4ccccc4)cn3)CC2)c2ccccc2n1
